Residues, ends and D or L forms follow the SMILES beside them.
How the values were obtained:
[1] = test system: 6-OHDA induced nigral-striatal lesion; assay: 6-OHDA induced nigral-striatal lesion, apomorphine-induced contralateral rotations; format: in vivo, Wistar rats; conditions: 1 mg (mg/kg) i.p. 2 hours post lesion; 7 days post-lesion, apomorphine 0.1 mg/kg; n=5; vehicle 290±18 or 292±21
Protocol: Twenty male Wistar rats (280-310 g) were used. After exposing the skull, 6-OHDA (8 μg in a base of 2 μl 0.9% saline containing 1% ascorbic acid) was administered into the right medial forebrain bundle (MFB) using co-ordinates AP +4.7 mm, R 1.6 mmv −8 mm under 3% halothane anaesthesia. 6-OHDA was injected through a 25G needle connected via a polyethylene catheter to a 100 μl Hamilton syringe. The 6-OHDA was infused by a microdialysis infusion pump at a rate of 0.5 μl/min. The needle was left in the brain for a further 3 minutes before being slowly withdrawn. The skin was sutured with 2.0 silk and the rats were allowed to recover from anaesthesia. The rats were housed in a holding room with free access to food and water at all times except during behavioural testing.
Cyclic PG was dissolved in saline. Four different doses of cPG (0, 0.1, 0.5, 1 mg/kg, Bachem) were administered intraperitoneally 2 hours post lesion.
At 7 days post-lesion, rats were injected with 0.1 mg/kg apomorphine and the number of contralateral rotations/hour was recorded and calculated using a computerised Rotameter (St Diego Instruments). Experimenter was blinded from the treatment groups.
Cyclic(tri(prolylglycyl)) was dissolved in saline solution. Four different doses of Cyclic(tri(prolylglycyl)) (0, 0.1, 0.5, 1 mg/kg, NeuroBiomed) were administered intraperitoneally 2 hours post lesion.
Cyclic Glycyl-2-Methyl Proline (cGMeP) was dissolved in saline solution. Four different doses of cGMeP (0, 0.1, 0.5, 1 mg/kg, NeuroBiomed) were administered intraperitoneally 2 hours post lesion.

[2] = test system: cerebellar microexplants (P4); assay: Glutamate induced neuronal death in cerebellar microexplants (P4); format: cell-based, Wistar rats; conditions: for neuron number compared to the normal control group: a further lower dose; for recovery from glutamate-induced neurotoxicity: lower doses 10-100 nM, simultaneously with glutamate
Protocol: Cerebellar Cell Culture Preparing and Coating of Cover Slips
Ten coverslips were placed into a large petri dish and washed in 70% alcohol for 5 minutes, then washed with Millipore H2O. The coverslips were air dried, then coated with Poly-D-Lysine (1 mg/ml stock solution in PBS, 90-100 μl) and incubated for 2 hours at 34° C.
Postnatal day 4 Wistar rats were used for the study. Rats were placed in ice for 1 minute, the heads were decapitated and the cerebellum removed on ice. Cerebellum tissue was placed in 1 ml of 0.65% glucose supplemented PBS (10 μl 65% stock D (+)glucose/1 ml PBS) in a large petri dish, chopped up into smaller sections and triturate with a 1 ml insulin syringe via a 23 G (0.4 mm) needle, and then squirted back into the glucose solution on the large petri dish. The tissue was sieved through (125 μm pore size gaze) and centrifuged (2 minutes at 60 g) two times for a medium exchange into serum-free BSA-supplemented START V medium (Biochrom). The second centrifugation step was done with 1 ml of START V medium. The microexplants were reconstituted into 500 μl of START V medium and put on ice.
Cultivation and Fixation of Cerebellar Cells
Two hours after PDL-coating, the slides were washed with Millipore H2O and air dried. Each slide was placed into a small 35 mm petri dish and 40 μl of START V/cell suspension added. The tissue was incubated for 2 hours at 34° C. (settlement period). START V-medium (1 ml) was then added to the petri dish and cultivated at 34° C./5% CO2/100% humidity for 48 hours. Cells were rinsed in PBS and then fixed for 2-3 minutes in increasing concentrations of paraformaldehyde (500 μl of 0.4% PFA was applied; then 1.2% PFA; then 3% PFA and finally 4% PFA—all fixation solutions contain 0.2% glutardialdehyde). Finally, the microexplants were rinsed in PBS.
(§1) 10 μl of toxin (L-glutamate-100 mM in Millipore water) was applied simultaneously with cPG (from bachem, 10 mM stock prepared in PBS and diluted to final concentrations between 1-100 nM) for Study 1. A delay in administration of cPG at 6 hours after glutamate treatment was performed for Study 2.
as §1, with “cyclic(tri(prolylglycyl)) (which was obtained from NeuroBiomed, San Jose, California),” for “cPG (from bachem,”, “cyclic(tri(prolylglycyl))” for “cPG”
as §1, with “cyclic Glycyl-2-Methyl Proline (obtained NeuroBiomed, San Jose California),” for “cPG (from bachem,”

[3] = 1-100 nM given 6 hours after the glutamate treatment, compared to vehicle
[4] = administered simultaneously with glutamate, 1-100 nM, glutamate alone 85% loss of neurons

O=C1NCC(=O)N2CCC[C@@H]12 [cPG, cyclic Prolyl Glycine]
number of contralateral rotations/hour [1]: 154±64 rotations/hour | recovery from glutamate induced neurotoxicity [2, 3]: significantly recovery | neuron number compared to the normal control group [2]: significant increase | glutamate induced neuronal death [2, 4]: significantly reduced | recovery from glutamate-induced neurotoxicity [2]: significant recovery

O=C1NCC(=O)N2CCC[C@H]2C(=O)NCC(=O)N2CCC[C@H]2C(=O)NCC(=O)N2CCCC12 (stereo partly drawn) [c(PG)3, cyclic (glycyl-L-prolylglycyl-L-prolylglycyl-L-prolyl)] (HELM PEPTIDE1{G.P.G.P.G.[O=C(C1CCCN1[*:1])[*:2]]}$PEPTIDE1,PEPTIDE1,1:R1-6:R2$$$V2.0)
number of contralateral rotations/hour [1]: 172±69 rotations/hour | improvement, recovery from glutamate induced neurotoxicity [2, 3]: approximately 43% | neuron number compared to the normal control group [2]: significant increase | reduction of glutamate induced neuronal death [2, 4]: 57% | recovery from glutamate-induced neurotoxicity [2]: significant recovery
